Laboratory results reported in patent publication US5639787A, “Therapeutic method for the treatment of cancer” (priority 1995, dated 1997).
Read-outs that look alike come from different tables or passages of the source.

What was measured:
[1] = tested on: patient's tumor cells (metastatic colon carcinoma); assay: cells; assay type: cell-based; conditions: Homo sapiens, Colon carcinoma cell, read-out: toxic to percent of the patient's tumor cells
Protocol: (§1) 3 Mr. […] Cancer was discovered during exploratory surgery. Multiple metastases were found on the omentum, transverse and sigmoid colon, and the peritoneum. Biopsy samples from these metastases were obtained during surgery and most of the tumor mass was not removed. A cell culture line was established from the tissue biopsies, and the patient tumor cells were tested to determine the sensitivity of the tumor cells to ascorbic acid. […] A target level of plasma concentration of ascorbic acid was selected at three times the level found to be toxic to the patient's tumor cells. Intravenous ascorbate was begun and the infusion quantity and rate required to achieve and maintain the targeted plasma ascorbic acid concentration of 90 mg/dl was determined. Twenty hour infusions of ascorbate were given three times per week. After four months of therapy, a surgical ileostomy was performed due to chronic diarrhea.

[2] = safety and tolerance of ascorbic acid administration; assay type: in vivo, human
Text: G.; O'Fallon, J. R.; et al. Failure of High Dose Vitamin C (ascorbic acid) to Benefit Patients With Advanced Cancer: A Control Trial. N Engl. J. Med., 1979; 301:687-690 and Mortel, C. G.; Fleming, T. R.; Creagan, E. T.; , et al. High Dose of Vitamin C Versus Placebo In The Treatment of Patients With Advanced Cancer Who Have Had No Prior Chemotherapy. N Engl. J. Med., 1985; 312:137-141. Heretofore the highest dosage understood to be safely administered to a human was approximately 10-15 grams. […] The positive results are believed to have been achieved by means of increased stromal resistance to the invasiveness of the malignancies studied, although the lack of monitoring of the level of ascorbic acid present in the plasma prevents an accurate assessment.
Therefore, the in vitro results are not readily duplicated in vivo and the concentrations of ascorbic acid that are effectively toxic in vitro are not as effective, nor as easy to achieve, in test subjects.
The method of the present invention comprises the treatment of cancer by administering sufficient amounts of ascorbic acid to raise the concentration of ascorbic acid in the patient's plasma above a level that is cytotoxic to the cancer tumor cells. The treatment is based on the fact that tumor cells contain between 10 and 100 fold less of the enzyme catalase than normal cells. Catalase converts toxic hydrogen peroxide to non-toxic oxygen and water. This biochemical difference between normal and tumor cells provides a window of opportunity for selective toxicity. It has been known for some time that ascorbate is capable of inducing the intracellular production of hydrogen peroxide. […] The plasma levels of ascorbic acid in patients are routinely and repeatedly monitored throughout the treatment and the amount of ascorbic acid administered is adjusted according to the individual patient's tolerance and the target level of ascorbic acid. […]

cancer = conditions: high doses of ascorbic acid; two published trials; cited from earlier work
[3] = tested on: PC-3 human prostate tumor cells; assay: cells; assay type: cell-based; conditions: PC-3, 120 h
Protocol: (§2) 5 a person was a with metastatic prostate cancer. A baseline blood sample was drawn from the patient and the serum was separated. An intravenous infusion of 105 grams of ascorbate was performed over 5 hours. At the and of the 5 hours another blood sample was taken and again the serum was separated. The pre-infusion serum sample was assayed and found to contain an ascorbic acid concentration of 3.4 mg/dl and the post-infusion serum samples were assayed and found to contain an ascorbic acid concentration of 165 mg/dl. The cytotoxic effectiveness of both serum samples was tested against a line of human prostate tumor cells called "PC-3"from American Type Culture Collection. The PC-3 cells were plated, 3,000 cells per well in plastic 96 well tissue culture plates 24 hours before the blood was taken from the patient above. 100% and 50% (diluted with complete culture medium, DMEM) serum solutions from both samples were added to 16 wells each of the PC-3 cells which had been plated earlier. After a five day incubation, the number of surviving tumor cells in the wells containing the 100% and 50% solutions of the post-infusion serum sample was compared to the number of surviving tumor cells in the wells containing the 100% and 50% solutions of the pre-infusion serum sample and the percent survival was calculated as follows: […]

[4] = tested on: metastatic fibrous histiocytoma; assay: A person, intravenous ascorbate, chest x-ray; assay type: in vivo, human
Text: Two masses were in the left lung and one mass was in the right lung. All masses measured approximately 2 cm. in diameter.

clinical [5] = conditions: human, in vivo
Text: It is known that ascorbic acid and salts thereof have shown a cytotoxic effect when administered in vitro to tumor cell lines. […] The cytotoxic effect of ascorbic acid is understood to relate to the increased production of intracellular hydrogen peroxide, which is more toxic to tumor cells due to the lower levels of catalase typically present in tumor cells as compared to normal cells. Although some cancers may respond to lower levels, the concentration level of ascorbic acid required for in vitro cytotoxic effectiveness are normally in the range of 5-40 mg/dl with concentrations of 30-40 mg/dl being typical. […] Moreover, since ascorbic acid is readily cleared from the body, the tumor cytotoxic effect, if any, achieved by conventionally administered doses of ascorbic acid would be transitory at best.
The method of the present invention comprises the treatment of cancer by administering sufficient amounts of ascorbic acid to raise the concentration of ascorbic acid in the patient's plasma above a level that is cytotoxic to the cancer tumor cells. The treatment is based on the fact that tumor cells contain between 10 and 100 fold less of the enzyme catalase than normal cells. Catalase converts toxic hydrogen peroxide to non-toxic oxygen and water. This biochemical difference between normal and tumor cells provides a window of opportunity for selective toxicity. It has been known for some time that ascorbate is capable of inducing the intracellular production of hydrogen peroxide. The basis of the present invention is the discovery, through experimentation, that concentrations of ascorbate capable of inducing toxic reactions in tumor cells were achievable in vivo through intravenous infusion of large amounts of ascorbic acid in solution. […] For this reason, it is desirable to exceed the levels required for in vitro cytotoxicity in tumor cells by a wide margin. It is also advantageous to maintain the cytotoxic level of ascorbic acid in the patient's plasma for as long a period of time as is reasonably possible. To achieve such results in patients, the treatment has required intravenous administration of as much as 115 grams of ascorbic acid infused over several hours to achieve an apparently effective level of ascorbic acid. […] Continuous administration of a solution of ascorbic acid maintains the plasma levels despite the bodies ability to clear the ascorbate from the patient's system. Continuation of the treatment over multiple infusions is believed to be desirable. […] The plasma levels of ascorbic acid in patients are routinely and repeatedly monitored throughout the treatment and the amount of ascorbic acid administered is adjusted according to the individual patient's tolerance and the target level of ascorbic acid. Target levels of ascorbic acid are set according to the type of cancer afflicting the patient using in vitro studies of cytotoxicity in similar cell lines. More accurate target levels can be achieved by in vitro experimentation of malignant cells taken from the patient if such are available. A further development of the treatment of the present invention involves the direct testing of the cytotoxic effectiveness of the patient's serum. Serum is drawn during the infusion and either the patient malignant cells, if available, or similar cell lines are exposed to the patient's serum with the effects observed. This direct testing provides information that is used to adjust the amount of ascorbic acid administered to ensure that effective plasma levels have been achieved.
Since, as stated above, there is not a direct translation of in vitro to in vivo results, the level of ascorbic acid within the patient's plasma must be raised to exceed the levels required for in vitro cytotoxicity in tumor cells and maintained at that level for a significant period of time. The patient undergoes an intravenous infusion of ascorbic acid in a medically acceptable aqueous solution such as Ringer's lactate. As an example, Mr. […]

[6] = cited from earlier work
[7] = tested on: metastatic colon carcinoma; assay: A person, intravenous ascorbate, metastases observed during surgery; assay type: in vivo, human; conditions: after four months of therapy
Protocol: as §1

[8] = humans; cited from earlier work
clinical [9] = conditions: human, in vivo, iv
Protocol: as §2

[10] = tested on: metastatic carcinoma of the head of the pancreas; assay: A person, intravenous ascorbate, tumor on C-T scan; assay type: in vivo, human; conditions: six months after diagnosis
Protocol: Since, as stated above, there is not a direct translation of in vitro to in vivo results, the level of ascorbic acid within the patient's plasma must be raised to exceed the levels required for in vitro cytotoxicity in tumor cells and maintained at that level for a significant period of time. The patient undergoes an intravenous infusion of ascorbic acid in a medically acceptable aqueous solution such as Ringer's lactate. As an example, whose case is described below was administered 115 grams of ascorbic acid in 1000 cc Ringer's lactate, infused over 8 hours. The infusions are continued until resolution of the patient's tumors have been evidenced. Normal diagnosis and classification of the patient's cancer can be used in conjunction with experimental results to predict the target levels of ascorbic acid for an effective treatment. More accurate target levels can be achieved by experimentation on cultured malignant cells taken from the patient if such are available. […] The plasma levels of ascorbic acid in patients are routinely and repeatedly monitored throughout the treatment and the amount of ascorbic acid administered is adjusted according to the individuals tolerance and the target level of ascorbic acid. […]

[11] = tested on: metastatic ovarian cancer; assay: A person, intravenous ascorbate, cancer antigen CA-125 level; assay type: in vivo, human; conditions: throughout intravenous ascorbate therapy, seven months
Protocol: 4 a person is a person with metastatic ovarian cancer. After six months of standard chemotherapy, a second exploratory surgery was performed, at which time metastases throughout the abdominal cavity were found. The patient was started on intravenous ascorbate infusions at the quantity and rate of flow required to maintain a plasma concentration of 80 mg/dl.

tumor cell lines = conditions: cited from earlier work
[12] = tested on: intracellular adhesion molecule-1 (ICAM-1); conditions: cited from earlier work

## O=C1O[C@H]([C@@H](O)CO)C(O)=C1O [ascorbic acid]
[1]
  cytotoxicity at 300 µg/mL: 100%
[2]; A person, 39 8 hour infusions, 57.5 to 115 grams per infusion, 13 weeks
  detrimental side effects: without reported detrimental side effects
[2]; ascorbic acid infusion process
  depletion of minerals and other substances: depletion of certain minerals and other substances
[2]; intravenous infusion of large amounts (as much as 115 grams over several hours)
  detrimental side effects: without reported detrimental side effects
cancer
  benefit to patients with advanced cancer: failure of high doses of ascorbic acid to have the desired effect in the treatment of cancer
[3]; read-out: percent tumor cell survival, post-infusion serum (165 mg/dl ascorbic acid), 50% serum, five days
  viability at 1650 µg/mL: 15%
[3]; read-out: percent tumor cell survival, post-infusion serum (165 mg/dl ascorbic acid), 100% serum, five days
  viability at 1650 µg/mL: 19%
[3]; read-out: percent tumor cell survival, preinfusion serum (3.4 mg/dl ascorbic acid), 50% serum, five days, reference
  viability at 34 µg/mL: 100%
[3]; read-out: percent tumor cell survival, preinfusion serum (3.4 mg/dl ascorbic acid), 100% serum, five days, reference
  viability at 34 µg/mL: 100%
[4]; after seven months of therapy
  right lung mass, chest x-ray: disappeared
[4]; after seven months, initially approximately 2 cm in diameter
  diameter of regressed left lung mass: about 1 cm
[4]; after twelve months of therapy
  left lung mass which had regressed: completely resolved
  size of the remaining left lung metastasis: no change
[4]; one of the left lung masses, after seven months of therapy
  left lung mass, chest x-ray: decreased in size (to about 1 cm) with decreased radio-opacity
Clinical [5]; iv
  concentration at 1 h: 1580 µg/mL
  concentration at 5 h: 1850 µg/mL
  plasma concentration maintained: 80 mg/dL
  plasma level of ascorbate achieved: exceeding 150 mg/dl
  plasma levels of ascorbate achieved: 110 mg/dL
  targeted plasma ascorbic acid concentration achieved and maintained: 90 mg/dL
Clinical [5]; po
  levels of ascorbic acid between infusions: found to avoid abnormally low levels of ascorbic acid between infusions
[6]; human, before the invention
  highest dosage understood to be safely administered to a human: 10-15 grams
[6]; rare cases of extreme tumor sensitivity to ascorbic acid, fatal
  tumor necrosis and hemorrhage: rare instances of wide-spread tumor necrosis and hemorrhage
[7]
  multiple metastases, size and consistency: decreased significantly in size and have a flaccid consistency
[8]
  normal plasma levels of ascorbic acid: 0.39 to 1.13 mg/dL
Clinical [9]
  ascorbic acid concentration in serum: 3.4 mg/dL
  concentration at 5 h: 1650 µg/mL
[10]
  tumor seen on C-T scan: no detectable tumor
[11]
  level of cancer antigen CA-125: returned to normal and remained within normal limits
Tumor cell lines; exposure to plasma
  effect of exposure to plasma on cytotoxic effect: diminished, to varying degrees
Tumor cell lines; normally in the range
  concentration level of ascorbic acid required for in vitro cytotoxic effectiveness: 5 to 40 mg/dL
Tumor cell lines; typical concentrations
  concentration level of ascorbic acid required for in vitro cytotoxic effectiveness, typical: 30 to 40 mg/dL

## hyaluronic acid
[12]
  binding by ICAM-1: preferentially bound
